As usually defined, the viability is a read-out of living cells in per cent, often relative to untreated cells.

For 80 compounds, viability results are on record in PMC12040169 (PLOS Biology, 2025).

The series in a line: in vitro. The conditions noted are these: human, hela cells, % viability.

As to `CC(=O)[C@H]1CC[C@H]2[C@@H]3CC[C@H]4CC5(CC[C@]4(C)[C@H]3CC[C@]12C)N=C1C=C(C(C)(C)C)ON1C1C=CCC15` (some centres unmarked) [CBK303246], the viability at 28.5 h, 10 µM is 42.9%.

Consider `CN(C)CCn1cnc2c1c(=O)[nH]c(=O)n2Cc1ccccc1` [CBK291235], for which the viability at 28.5 h, 10 µM is 96.9%.

On to `COC(=O)c1c(NC(=O)COc2ccc(Br)cc2)sc2c1CCC2` [CBK263369], for which the viability at 28.5 h, 10 µM was 89.9%.

For the compound `C=CCN1C(=O)CC2(C1=O)C(=O)N(CCCn1c(=O)c3c(ncn3C)n(C)c1=O)c1ccc(OC)cc12` (centres unmarked) [CBK075701], the viability at 28.5 h, 10 µM worked out at 93.6%.

As to `Cc1cc(C[C@@H]2CCC[C@H]2NCc2cccnc2)on1` [CBK284933], the viability at 28.5 h, 10 µM was determined as 97.1%.

Turning to `CN(C)c1cccc(C(=O)Nc2ccccc2N2CCOCC2)c1` [CBK295184], the viability at 28.5 h, 10 µM worked out at 76.2%.

As for `CS(=O)(=O)c1ccc(Nc2ncnc(N3CCC(Sc4ccccc4)CC3)c2[N+](=O)[O-])cc1` [CBK113567], the viability at 28.5 h, 10 µM amounted to 92.8%.

`Cc1cc(O)nc(SCCOCCSc2ccc(Cl)cc2)n1` [CBK267372]: the viability at 28.5 h, 10 µM is 94%.

As for `CN1CCN(Cc2nc3c(c(=O)n(C)c(=O)n3C)n2CCc2ccccc2)CC1` [CBK269507], the viability at 28.5 h, 10 µM was 96.2%.

Regarding `Cc1csc2ncnc(N3CCN(C(=O)C4CC4)CC3)c12` [CBK023593], the viability at 28.5 h, 10 µM was found to be 112%.

Regarding `Cc1ccc(OCCCCNCCN)c(Br)c1` [CBK265099G], the viability at 28.5 h, 10 µM was 85.1%.

Take `c1ccc2c3c([nH]c2c1)C12CCN(CC1)C(c1ccncc1)N2CC3` (centres unmarked) [CBK284434]: the viability at 28.5 h, 10 µM came to 88.5%.

With `O=C1CC(c2ccccc2O)CC2=C1C=Nc1ccccc1N2` (centres unmarked) [CBK270287], the viability at 28.5 h, 10 µM turned out to be 97.4%.

As for `Cc1cc(C)n(CC(O)CN(Cc2ccco2)CC2CC=CCC2)n1` (centres unmarked) [CBK283159], the viability at 28.5 h, 10 µM came out at 95.6%.

Turning to `CCN1CCCC1CNC(=O)C(=O)Nc1ccccc1OC` (centres unmarked) [CBK266865], the viability at 28.5 h, 10 µM worked out at 103%.

Turning to `OC[C@H]1O[C@@H](n2cnc3c(Cl)ncnc32)C(O)[C@H]1O` (some centres unmarked) [CBK201266], the viability at 28.5 h, 10 µM is 99.1%.

For the compound `Cc1cc2c(cc3c(=O)n(CC(=O)N4CCCCC4)nc(C)n32)s1` [CBK284063], the viability at 28.5 h, 10 µM worked out at 95.3%.

Regarding `COc1ccc(C(=O)Nc2nc3ccc(NC(C)=O)cc3s2)cc1OC` [CBK287311], the viability at 28.5 h, 10 µM was 101%.

For the compound `OC1(C(F)(F)F)C=C(c2cccs2)ON1` (centres unmarked) [CBK006243], the viability at 28.5 h, 10 µM came to 89%.

For `O=[N+]([O-])c1ccc(NCCCNS(=O)(=O)c2ccc3ccccc3c2)c(Cl)c1` [CBK262006], the viability at 28.5 h, 10 µM was found to be 79.3%.

Regarding `Nc1nc(/C=C/c2cccs2)nc(-c2ccccc2O)n1` [CBK270033], the viability at 28.5 h, 10 µM stood at 105%.

On to `O=C1CN(C(=O)NCc2cccc3ccccc23)CCN1` [CBK155852], for which the viability at 28.5 h, 10 µM came out at 102%.

With `CCc1cn(C[C@H](NC(=O)C2CCCC2)C(=O)O)c(=O)[nH]c1=O` [CBK289664], the viability at 28.5 h, 10 µM came to 106%.

Regarding `COc1ccccc1N1CCN(C[C@H]2C[N@@]3CC[C@H]2C[C@@H]3CNS(C)(=O)=O)CC1` [CBK288770], the viability at 28.5 h, 10 µM was 87.5%.

On to `COc1ccc(C(=O)N2CCN(c3ccc(NC(=O)c4cccnc4)cc3)CC2)cc1` [CBK270200], for which the viability at 28.5 h, 10 µM is 85.5%.

On to `CN(C1CCCCC1)S(=O)(=O)c1cc(Cl)ccc1Cl` [CBK261744], for which the viability at 28.5 h, 10 µM amounted to 118%.

Turning to `CSc1ccc(-c2nccnc2OC(c2ccccc2)c2ccccc2)cc1` [CBK106797], the viability at 28.5 h, 10 µM turned out to be 90.2%.

For `O=C(NCC1CCOCC1)c1cc(-c2cccnc2)cnc1NCc1ccc2c(c1)OCO2` [CBK154825], the viability at 28.5 h, 10 µM is 104%.

Turning to `CC(C)NC(=O)C1(Cc2ccccc2-c2ccncc2)CCOCC1` [CBK284786], the viability at 28.5 h, 10 µM came to 94.1%.

With `O=C1CCCN1CCOc1nccnc1-c1ccc(F)cc1` [CBK106895], the viability at 28.5 h, 10 µM stood at 98.7%.

Take `CC1CCCN(C(=O)CCn2c(-c3ccccn3)cc3cccnc32)C1` (centres unmarked) [CBK282154]: the viability at 28.5 h, 10 µM is 91.2%.

Consider `O=C(Cn1c(-c2cccs2)cc2cccnc21)NC1CC1` [CBK282552], for which the viability at 28.5 h, 10 µM stood at 101%.

`CN1c2ccccc2C(c2ccccc2)=NS1(=O)=O` [CBK022873]: the viability at 28.5 h, 10 µM was determined as 92.1%.

As to `CC(CN(C)C(=O)c1nc(=O)[nH][nH]1)Oc1ccc(Cl)c(Cl)c1` (centres unmarked) [CBK306471], the viability at 28.5 h, 10 µM was found to be 87.9%.

For `COc1ccc(OC)c(C(=O)N2CCNC(=O)C2Cc2ccccc2-c2ccc(F)cc2)c1` (centres unmarked) [CBK285829], the viability at 28.5 h, 10 µM is 105%.

For the compound `CCCCc1ccc(NC(=O)Nc2ccc3ccc(Cl)nc3n2)cc1` [CBK063259], the viability at 28.5 h, 10 µM amounted to 114%.

`O=C1c2cccc3cccc(c23)C(=O)N1CCCSc1nnc[nH]1` [CBK268894]: the viability at 28.5 h, 10 µM stood at 66.4%.

On to `NC(=O)CC1C(=O)N(c2ccc(F)cc2)C(=O)N1NC(=O)CCc1ccccc1` (centres unmarked) [CBK269033], for which the viability at 28.5 h, 10 µM is 104%.

In the case of `CN1C(=O)CC(c2ccccc2)Nc2ccccc21` (centres unmarked) [CBK086373C], the viability at 28.5 h, 10 µM (bulk resorufin, single well) was found to be 103%.

In the case of `C#Cc1cn([C@H]2C[C@@H](O)[C@@H](CO)O2)c(=O)[nH]c1=O` [CBK201207], the viability at 28.5 h, 10 µM was determined as 87.8%.

On to `Cc1nn(C)cc1-c1cncn1CCCN1CCCCC1` [CBK281493], for which the viability at 28.5 h, 10 µM is 96%.

As for `CN1CCC(N2CCN(C(=O)Nc3ccc(Cl)cc3)CC2)CC1` [CBK155899], the viability at 28.5 h, 10 µM came out at 109%.

With `FC(F)(F)c1ccnc(OCCCc2ccncc2)n1` [CBK115799], the viability at 28.5 h, 10 µM came to 97.5%.

Take `Cc1ccc(S(=O)(=O)NCCc2cn3ccc(C)cc3n2)cc1` [CBK287630]: the viability at 28.5 h, 10 µM came to 103%.

`CCOC(=O)N1CCN(C2CCCN(Cc3cnc(N(C)C)s3)C2)CC1` (centres unmarked) [CBK307041]: the viability at 28.5 h, 10 µM turned out to be 93.7%.

Turning to `CCc1nnc(NC(=O)c2cc(OC)c(OC)c(OC)c2)s1` [CBK058342], the viability at 28.5 h, 10 µM worked out at 93.1%.

For `Clc1ccccc1-c1cn2ccnc2c(NCc2cccnc2)n1` [CBK038039], the viability at 28.5 h, 10 µM is 94.5%.

Regarding `c1ccc2cc(CCN3CCC(Oc4cncc(OCCN5CCOCC5)n4)C3)ccc2c1` (centres unmarked) [CBK084503], the viability at 28.5 h, 10 µM is 92.7%.

As to `CCC(C)c1ccc(NC(=O)CSc2nnnn2C)cc1` (centres unmarked) [CBK058085], the viability at 28.5 h, 10 µM was found to be 122%.

For `COC(=O)c1ccc(-c2ccc3[nH]ccc3c2)nc1` [CBK160174T], the viability at 28.5 h, 10 µM worked out at 89.1%.

Take `CCN1CCCCC1CNC(=O)c1n[nH]c2c1CCC2` (centres unmarked) [CBK282207]: the viability at 28.5 h, 10 µM stood at 96.2%.

As for `O=C(Nc1ccncc1)C1(c2ccccc2)CCCC1` [CBK287972], the viability at 28.5 h, 10 µM came out at 111%.

For the compound `O=C(Nc1cc(-c2nc3ncccc3o2)ccc1Cl)c1cccnc1` [CBK269700], the viability at 28.5 h, 10 µM is 90.8%.

Regarding `COc1ccc(-c2nc(NC(=O)Cc3ccccc3OC)cnc2-c2cccc(C)c2)cn1` [CBK036839], the viability at 28.5 h, 10 µM was 111%.

As for `CC(Cc1cccs1)NC(=O)CSCc1ccco1` (centres unmarked) [CBK283238], the viability at 28.5 h, 10 µM came to 84.8%.

With `COc1ccc(CN2C(=S)N(CC3CCCCC3)[C@H]3[C@@H]2[C@H]2OC(=O)[C@@H]3C[C@H]2O)cc1` [CBK288936], the viability at 28.5 h, 10 µM was determined as 117%.

With `S=C(Nc1ccccc1)Nc1nc2ccccc2n1CCOc1ccccc1` [CBK265487], the viability at 28.5 h, 10 µM is 113%.

Take `Cn1ncc2c1CCCN(C(=O)COc1ccc(F)cc1F)C2` [CBK285229]: the viability at 28.5 h, 10 µM turned out to be 90.6%.

`Cc1cccc(-c2noc(CNC(=O)CSc3ccccc3)n2)c1` [CBK270209]: the viability at 28.5 h, 10 µM was 98.3%.

In the case of `Cn1c(SCc2nnc(-c3ccccc3)o2)nnc1C(O)c1ccccc1` (centres unmarked) [CBK269640], the viability at 28.5 h, 10 µM was determined as 92.3%.

With `Cn1cncc1CN1CCNC(=O)C1c1ccccc1C(F)(F)F` (centres unmarked) [CBK305495], the viability at 28.5 h, 10 µM was 98%.

Turning to `CC(=O)C1=C(O)C(=O)N(CCC(=O)O)C1c1ccccc1` (centres unmarked) [CBK286763], the viability at 28.5 h, 10 µM amounted to 84.3%.

`S=C1NCN(Cc2ccc3c(c2)OCO3)CN1` [CBK267899]: the viability at 28.5 h, 10 µM stood at 87.1%.

Consider `CCCn1cc(S(=O)(=O)N2CCCC2c2ccc(Nc3cccc(C)n3)cn2)c(C)n1` (centres unmarked) [CBK286258], for which the viability at 28.5 h, 10 µM is 77.6%.

For the compound `O=C1CN(C(=O)Nc2ccccc2Cl)CCN1` [CBK155862], the viability at 28.5 h, 10 µM was 96.7%.

Take `O=S(=O)(c1ccccc1)n1c(CO)cc2c(C(F)(F)F)cc(CN3CCNCC3)cc21` [CBK143799]: the viability at 28.5 h, 10 µM is 97.7%.

Regarding `Cc1ccc(C(=O)N2CCN(CC(=O)N3CCCC3)CC2)cc1` [CBK039096], the viability at 28.5 h, 10 µM came to 110%.

`Cc1sc2ncn(Cc3c(Cl)cccc3Cl)c(=O)c2c1C` [CBK265355]: the viability at 28.5 h, 10 µM worked out at 78.8%.

In the case of `CC(C)(C)OC(=O)N1CCC(Sc2ccc(-c3ccco3)cc2)CC1` [CBK122552], the viability at 28.5 h, 10 µM is 85.6%.

Take `Cc1nnc(SCc2ccc(CSc3nnc(C)c(=O)[nH]3)cc2)[nH]c1=O` [CBK268085]: the viability at 28.5 h, 10 µM was determined as 86.1%.

Regarding `CCNC(=O)[C@H]1CC[C@]2(CC1)CNC(=O)c1cc(Cl)ccc1O2` [CBK284890], the viability at 28.5 h, 10 µM came out at 95.4%.

With `CCc1cc(Br)ccc1S(=O)(=O)Nc1ccccc1O` [CBK043877], the viability at 28.5 h, 10 µM stood at 92%.

Consider `O=C(Nc1nc2ccc(Br)cc2s1)C1CC2CCC1C2` (centres unmarked) [CBK026397], for which the viability at 28.5 h, 10 µM was 88.8%.

`Nc1ccccc1Sc1nccc(C(F)(F)F)n1` [CBK006263]: the viability at 28.5 h, 10 µM worked out at 94.5%.

Consider `CC(=O)N1CCCN(C(=O)c2ncoc2-c2ccc(F)cc2)CC1` [CBK282398], for which the viability at 28.5 h, 10 µM came to 85.2%.

Consider `O=C(NCCN1CCOCC1)N1CCN(CCc2ccccc2)CC1` [CBK158908], for which the viability at 28.5 h, 10 µM was 85.5%.

Turning to `COc1ccc(-c2nc(-c3ccoc3)cnc2N)cc1OC` [CBK063964], the viability at 28.5 h, 10 µM worked out at 105%.

As for `CC(C)(C)NC(NC(=O)Cc1ccccc1)C(Cl)(Cl)Cl` (centres unmarked) [CBK261090], the viability at 28.5 h, 10 µM came out at 86.5%.

Turning to `N#CCCCN1CCC(Oc2nccnc2OCc2c(F)cccc2Cl)CC1` [CBK153630], the viability at 28.5 h, 10 µM is 102%.

As to `Cn1c(-c2ccc(-c3nc4cnccc4n3C)cc2)nc2cnccc21` [CBK261423], the viability at 28.5 h, 10 µM turned out to be 106%.
